The subject of experiment [1] is PC3 prostate cancer cell line. The experiment can be described thus: Cell Titer Glo cell viability assay. Format: cell-based. Conditions: Homo sapiens, PC-3, PC3 cells. An excerpt:
In this series of cell viability experiments, we used the highly sensitive Cell Titer Glo reagents from Promega in PC3 prostate cancer cell line. We compared the parental compound C3 effect on reducing cell viability with the best derivative compound, DBG-02-09.

The test system of another experiment is PC-3 cells. The experiment can be described thus: RT-qPCR of PEDF-signaling associated genes. To be noted: PC-3, 50 μM, 48 hours. Format: cell-based. As for the experimental part: Expression of PEDF-signaling associated genes from PC-3 cells treated with 50 μM C3, compared to DMSO control and normalized to GAPDH (n=3, mean±SEM). A Holm-Sidak multiple t test was used for statistical analysis (*p<0.05,**O<0.01, ***<0.001). […] Average tube count for 0.1% DMSO, 0.5% DMSO, and 1, 10 and 50 μM treatment with C3 (n=7, mean±SEM). 1 and 10 μM C3 were compared with respective 0.5% DMSO (unpaired two-tailed t test, ****<0.0001). 50 μM C3 was compared with respective 0.1% DMSO (unpaired two-tailed t test p<0.0001).
RT-qPCR. PC-3 cells were seeded in 6 well plates at 3×10^5 cells per well and incubated with 50 μM C3 or DMSO equivalent in 1×RPMI-1640, 1× anti-anti, and 2% FBS (ThermoFisher) for 48 hours. PC-3 cells were lifted using 20 mM EDTA in 1×DPBS and pelleted before isolating total RNA using the RNeasy Mini Kit (Qiagen). 1 μg of RNA per sample was reverse transcribed using the amfiRivert cDNA synthesis master mix (GenDEPOT). Real-time PCR wells contained 1 μL cDNA template, 2×SYBR Green Master Mix (Applied Biosystems), and 20 μM forward and reverse primers. Primer sequences are provided in Table 2. qRT-PCR was performed on an Eppendorf Realplex 2S (Eppendorf), using: 40×95° C. for 3 mins; 95° C. for 3 s; 60° C. for 30 s; 72° C. for 8 s and analyzed using EP Realplex software (version 2.2). Fold changes were normalized to GAPDH using the ddCT method.
Genes involved in migration/invasion and/or extracellular matrix (ECM) communication also were assayed.
For orientation: Real-time PCR tracks product formation cycle by cycle.

Experiment [2] addresses T1, Peptide G (37 LR binding site for laminin, aa 161-180) (Homo sapiens, UniProt P08865).
T1 construct: purchased United Biosystems; host or cells: chemical synthesis
The experiment can be described thus: Intrinsic tryptophan fluorescence binding assay, Peptide G. Conditions: 50 μM Peptide G, titration 0.1 to 100 μM; read-out: EC50, reduction of intrinsic tryptophan fluorescence. On the procedure:
FIG. 4. Reduction of Tryptophan Fluorescence by C3. 50 μM peptide G or Scramble G was incubated with concentrations of C3 ranging from 100 nM to 100 μM. Intrinsic tryptophan fluorescence was quantified at 350 nm emission (270 nm excitation) and graphed as a function of C3 dose after subtracting baseline C3 fluorescence. GraphPad Prism was used to determine an ECso for tryptophan reduction as described in the method (n=3±SEM).
Cell Viability Screen. PC-3, Endo, TC2-Ras, SH-SY5Y, and LNCaP cells were seeded in 96-well plates at 1,500 cells per well using the Scepter cell counter (EMD Millipore). […] Cell viability was measured by using the cell counting kit-8 (CCK-8, Dojindo). […] CCK-8 absorbance was measured at 450 nm using a GloMax Multimode Reader (Promega). Readings were performed the day after seeding to normalize for variations in cell seeding and after 96 hours of compound treatment. After each reading, CCK-8 media was removed and replaced with media containing compound as described previously. […] As described previously, an initial baseline CCK-8 reading was performed at 24 hours post seeding to correct for variations in seeding density. First, 450 nm values for each well were subtracted from media only readings to correct for baseline absorbance. Then, the 96 hour readings were normalized to their respective 24 hour readings to control for seeding variation. […]

Where only a bound is given, the exact number is not on record here.

T1 sequence (P08865 161-180 limits assumed): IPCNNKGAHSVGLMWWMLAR

For orientation: IC50 means the point on the concentration scale where inhibition reaches its midpoint. Lower therefore signals higher potency. As usually defined, the EC50 is the midpoint of the concentration-response curve. In the case of `O=C(c1cc(F)cc2c1OCOC2)N1CCN(C2c3ccccc3-c3ccccc32)CC1` [Compound C3, [4-(9h-fluoren-9-yl)piperazino](6-fluoro-4h-1,3-benzodioxin-8-yl)methanone], in experiment [1], half-maximal inhibition (IC50) required 16.7 ± 7.6 µM. Also, in the experiment on PC-3 cells, the “VEGF mRNA, fold change” value was ~4 FC; the “VEGFR2 transcription, fold change” value is listed as > −15 fold change; the “thrombospondin-1 (THBS1) mRNA, fold change” value was > 10 FC. Besides, in experiment [2], the EC50 was 16.1 µM.

(Values after patent US11022604B2, “Dock derived compound against laminin receptor (37 LR) and uses thereof” (Purdue Research Foundation, priority 2017, dated 2021).)
